Measured values taken from patent US8487107B2, “Biphenyl compounds useful as muscarinic receptor antagonists” (Theravance, Inc., priority 2005, dated 2013).
Where a name gives a salt, the structure may show the parent alone.

What was measured:
[1] = Dynamic moisture sorption (DMS) assessment; assay type: physicochemical
Experimental: A dynamic moisture sorption (DMS) assessment (also known as a moisture sorption-desorption profile) was performed for samples of the crystalline diacetate salt using a VTI atmospheric microbalance, SGA-100 system (VTI Corp., Hialeah, Fla. 33016). A sample size of approximately 10 mg was used and the humidity was set at the ambient value at the start of the analysis. A typical DMS analysis consisted of three scans: ambient to 2% relative humidity (RH), 2% RH to 90% RH, 90% RH to 5% RH at a scan rate of 5% RH/step. The mass was measured every two minutes and the RH was changed to the next value (+/−5% RH) when the mass of the sample was stable to within 0.01% for 5 consecutive points.

[2] = DSC thermal analysis (thermal decomposition); assay type: physicochemical; conditions: DSC trace, heating ramp 10° C./min
Experimental: DSC was performed using a TA Instruments Model Q-10 module with a Thermal Analyst controller, and data were collected and analyzed using TA Instruments Thermal Solutions software. A sample of about 1 mg of the crystalline diacetate salt was accurately weighed into an aluminum pan with lid, and evaluated using a linear heating ramp of 10° C./min from ambient temperature to approximately 300° C. The DSC cell was purged with dry nitrogen during use. A representative DSC trace for this salt is shown in FIG. 2 and depicts one transition at about 114° C., no thermal decomposition below about 160° C., and maximum endothermic heat flow at about 112° C.

SMILES	weight gain when exposed to up to 90% RH (DMS, reversible sorption/desorption profile) [1]	no thermal decomposition below (DSC) [2]
CN(CCN1CCC(OC(=O)Nc2ccccc2-c2ccccc2)CC1)C(=O)c1cccc(C(=O)NCCNCc2ccc(O)cc2)c1 [crystalline diacetate salt, biphenyl-2-ylcarbamic acid 1-[2-({3-[2-(4-hydroxybenzylamino)ethylcarbamoyl]benzoyl}methylamino)ethyl]piperidin-4-yl ester]	less than 18%	≥ 160 °C
CN(CCN1CCC(OC(=O)Nc2ccccc2-c2ccccc2)CC1)C(=O)c1cccc(C(=O)NCCNCc2ccc(O)cc2)c1 [crystalline dipropionate salt, Biphenyl-2-ylcarbamic Acid 1-[2-({3-[2-(4-Hydroxybenzylamino)ethylcarbamoyl]benzoyl}methylamino)ethyl]piperidin-4-yl Ester]	less than 11%	≥ 150 °C
CN(CCN1CCC(OC(=O)Nc2ccccc2-c2ccccc2)CC1)C(=O)c1cccc(C(=O)NCCNCc2ccc(O)cc2)c1 [crystalline monooxalate salt, Biphenyl-2-ylcarbamic Acid 1-[2-({3-[2-(4-Hydroxybenzylamino)ethylcarbamoyl]benzoyl}methylamino)ethyl]piperidin-4-yl Ester]	less than 14%	≥ 150 °C
